Measured values reported in US11246846B2, “Trisodium citrate compositions having enhanced uptake across digestive mucosa” (priority 2017, dated 2022).
Like-named read-outs stand apart in the source and are kept apart here.

What was measured:
[1] = tested on: Caco-2 monolayer; assay: Leucine permeation across Caco-2 model intestinal barrier (Example I); assay type: in vitro ADME, human
From the text: Initially, in order to make a meaningful evaluation of sodium transport of branched-chain amino acids across eukaryotic mucosal cells of the human digestive tract, the inventors elected to test leucine transport using the Caco-2 monolayer model similar to that described by Dash, et al. in “Evaluation of Creatine Transport Using Caco-2 Monolayers” id. The tests were undertaken using a Caco-2 cells so as to more closely approximate transport of creatine and branched-chain amino acids across mucosal cell membranes in vivo than might be reflected in other utilizing non-human cell sources or non-mucosa cell sources. In the permeation tests illustrated herein, simulated gastric and intestinal buffers were made with 0.2 normal (N) NaOH, made by mixing 1 g NaOH as needed with 125 mL deionized water. To simulate intestinal fluid without enzymes, 6.8 g monobasic potassium phosphate were mixed in 77 mL 0.2 N sodium hydroxide, and pH adjusted to 6.8±0.1 using NaOH or HCl, as needed. Thereafter, the solution was diluted to 1 L with deionized water, with a final pH of about 6.8±0.1. To simulate gastric fluid without enzymes, 2.0 g sodium chloride was added to 7.0 mL concentrated HCl, and then diluted to 1 L with deionized water. The pH was approximately 1.2
A repetition in a series of three repetitions was then undertaken to examined the changes in permeation in the presence of a different form of sodium as compared to leucine alone in Hank's Balanced salt solution across a Caco-2 model intestinal barrier (TEER≥1000 ohm*cm2). […] Leucine permeation across the Caco-2 monolayer was measured at 15, 30, 45, 60, 75 and 90 minutes after test initiation in milligrams of leucine per centimeter2 (mg/cm2). Data is summarized in Table I below and illustrated in FIG. 1.

[2] = tested on: Caco2 monolayer; settings: for glutathione diffusion across Caco2: human, 10 mM
Procedure: (§1) Again, undyed isotonic DPBS as receiver and donor buffer rather than HBSS was used due to interference with HBSS components in the HPLC. […] Samples were taken at 15 minute intervals for 90 minutes and replaced with fresh isotonic DPBS. Samples were taken from donor chamber at time 0 and at 90 minutes.

[3] = tested on: Caco2 monolayer; assay: Valine permeability across Caco2 monolayer with/without TSC (Example X); assay type: in vitro ADME, human; settings: for valine diffusion across Caco2: 10 mM in DPBS
Procedure: Undyed isotonic DPBS was used as receiver and donor buffer rather than HBSS due to interference with HBSS components and Valine in the HPLC. In brief 3 mM 10 mM Valine in DPBS alone or with 10 mM trisodium citrate was added to the donor chamber of each of 3 side by side diffusion cells with a confluent Caco 2 Monolayer between (TEER˜900 Ohm*cm2). […] Data is summarized below in Table X and graphically illustrated in FIG. 17.

[4] = tested on: Caco 2 Monolayer; assay: L-Arginine and L-Citrulline diffusion across Caco2 monolayer with/without TSC (Example III); assay type: in vitro ADME, human; settings: for arginine diffusion across Caco2: human, 10 mM; for citrulline diffusion across Caco2: 10 mM in DPBS
Procedure: Thereafter, further diffusion studies were undertaken using a Caco-2 cellular model similar to that described in connection with Example II above. Four formulations were studied, with chemicals present at 10 mM: […]
For these experiments undyed isotonic DPBS was used as the receiver and donor buffer rather than HBSS due to interference with HBSS components in the HPLC. […] Below are the results of these studies.

[5] = tested on: Caco2 monolayer; assay type: in vitro ADME, human; settings: for arginine diffusion across Caco2: human, 10 mM
From the text: In further experiments were undertaken using a Caco-2 cellular model similar to that described in connection with Example II above. […] For these experiments undyed isotonic DPBS was used as receiver and donor buffer rather than HBSS due to interference with HBSS components in the HPLC. […] The results of these studies in graphical form are illustrated in FIGS. 6 and 7.

[6] = tested on: Caco2 monolayer; assay: Sarcosine and L-Leucine permeability through Caco2 monolayer with/without TSC (Example VI); assay type: in vitro ADME, human; settings: for sarcosine diffusion across Caco2: 10 mM each in DPBS, estimation by subtraction
From the text: On analysis it was discovered that a peak in the receiver side samples which had not interfered with previous samples eluted at the same time as the Sarcosine. The results were adjusted by averaging this peak from time points in previous studies and accordingly, the results represent an estimation by subtraction.

[7] = tested on: Caco2 monolayer; assay: Creatine and leucine diffusion across Caco-2 monolayer, sodium/citrate sources (Example II); assay type: in vitro ADME, human; settings: added at 10 mM to creatine monohydrate and leucine
Procedure: More particularly, after 21 days of growth in Corning® Transwell 6 well plat, trans-epithelial electrical resistance (TEER) was measured across the Caco2 monolayer using an EVOM II TEER meter with an Endohm 24SNAP measuring chambers. Cells were considered ready for use if the average TEER value reached approximately 900 Ohm*cm2. The Caco2 monolayer was then equilibrated in DPBS at 37° C. for 15 minutes. The apical solution was then removed and replaced with the various solutions to be tested. Basolateral chambers were sampled at 15, 30, 45, 60, 75 and 90 minutes and replaced with fresh DPBS. All samples were filtered at 0.45 μm and examined by HPLC. The HPLC analysis utilized a 250 mm×4.6 mm, 5 μm Thermo Scientific BDS Hypersil base deactivated C18 column. The mobile phase consisted of 0.5 M ammonium sulphate at a flow rate of 1.5 m/min. Sample detection was performed at 206 nm using a photodiode array. For this Example II, four formulations were studied, with chemicals present at 10 mM:
For the experiments in this study samples from each formulation were monitored apical to basolateral through a Caco-2 membrane registering an average TEER of 1650 Ohm*cm^2.

[8] = tested on: Caco2 monolayer; assay: L-Citrulline and L-Leucine permeability through Caco2 monolayer with/without TSC (Example V); assay type: in vitro ADME, human; settings: for citrulline diffusion across Caco2: 10 mM each in DPBS
Procedure: as §1, with “isotonic DPBS was used as receiver” for “isotonic DPBS as receiver”, “than HBSS due to” for “than HBSS was used due to”

[9] = tested on: Caco2 monolayer; assay: Iso-leucine permeability through Caco2 monolayer with/without TSC (Example IX); assay type: in vitro ADME, human; settings: for iso-leucine diffusion across Caco2: 10 mM in DPBS
Procedure: Undyed isotonic DPBS was used as receiver and donor buffer rather than HBSS due to interference with HBSS components and Valine in the HPLC. In brief 3 mM 10 mM Isoleucine or Valine in DPBS alone or with 10 mM trisodium citrate was added to the donor chamber of each of 3 side by side diffusion cells with a confluent Caco 2 Monolayer between (TEER˜900 Ohm*cm2). […] Below are the results of this study in table form, which are graphically illustrated in FIG. 16.

In the case of O=C1O[C@H]([C@@H](O)CO)C([O-])=C1O.[Na+] [sodium ascorbate], the “permeation of leucine in the presence of the sodium source” value ([1]; compared to leucine alone / sodium ascorbate) is reported as “slight increase”.

For N[C@@H](CCC(=O)N[C@@H](CS)C(=O)NCC(=O)O)C(=O)O [Glutathione alone, Glutathione], the “Glutathione permeation in the presence of trisodium citrate” value ([2]; Caco-2) was “significantly increased”, the “glutathione diffusion across Caco2” value ([2]; Caco-2, 15 min) was 0.177 μM/cm^2 and the “glutathione diffusion across Caco2” value ([2]; Caco-2, 30 min) was 0.467 μM/cm^2. The “glutathione diffusion across Caco2” value ([2]; Caco-2, 45 min) was 0.731 μM/cm^2, the “glutathione diffusion across Caco2” value ([2]; Caco-2, 60 min) was 0.977 μM/cm^2 and the “glutathione diffusion across Caco2” value ([2]; Caco-2, 75 min) was 1.227 μM/cm^2. For the same compound, the “glutathione diffusion across Caco2” value ([2]; Caco-2, 90 min) was 1.456 μM/cm^2.

In the case of CC(C)[C@H](N)C(=O)O [Valine alone, Valine], the “valine diffusion across Caco2” value ([3]; 15 min) is reported as 1.388 μM/cm^2, the “valine diffusion across Caco2” value ([3]; 30 min) is reported as 1.431 μM/cm^2 and the “valine diffusion across Caco2” value ([3]; 45 min) is reported as 1.537 μM/cm^2. The “valine diffusion across Caco2” value ([3]; 60 min) was 1.682 μM/cm^2, the “valine diffusion across Caco2” value ([3]; 75 min) was 1.841 μM/cm^2 and the “valine diffusion across Caco2” value ([3]; 90 min) was 2.081 μM/cm^2. For the same compound, the “permeability shift in the presence of trisodium citrate” value ([3]; compared to iso-leucine and leucine) was “significantly greater permeability shift and overall higher permeability”.

N=C(N)NCCC[C@H](N)C(=O)O [L-Arginine alone, L-Arginine] was tested, and the “arginine diffusion across Caco2” value ([4]; Caco-2, 15 min) was 0.988 μM/cm^2, the “arginine diffusion across Caco2” value ([4]; Caco-2, 30 min) was 1.453 μM/cm^2 and the “arginine diffusion across Caco2” value ([4]; Caco-2, 45 min) was 2.033 μM/cm^2. The “arginine diffusion across Caco2” value ([4]; Caco-2, 60 min) was 2.578 μM/cm^2, the “arginine diffusion across Caco2” value ([4]; Caco-2, 75 min) was 3.005 μM/cm^2 and the “arginine diffusion across Caco2” value ([4]; Caco-2, 90 min) was 3.448 μM/cm^2. The “L-Arginine permeability in the presence of trisodium citrate” value ([5]; Caco-2) was “enhanced”, the “arginine diffusion across Caco2” value ([5]; Caco-2, 15 min) was 1.007 μM/cm^2 and the “arginine diffusion across Caco2” value ([5]; Caco-2, 30 min) was 1.511 μM/cm^2. The “arginine diffusion across Caco2” value ([5]; Caco-2, 45 min) was 1.999 μM/cm^2, the “arginine diffusion across Caco2” value ([5]; Caco-2, 60 min) was 2.432 μM/cm^2 and the “arginine diffusion across Caco2” value ([5]; Caco-2, 75 min) was 2.982 μM/cm^2. The “arginine diffusion across Caco2” value ([5]; Caco-2, 90 min) was 3.237 μM/cm^2.

With CNCC(=O)O [Sarcosine alone, Sarcosine] the “Sarcosine permeability in the presence of TSC” value [6] was “enhanced”, the “sarcosine diffusion across Caco2” value ([6]; 15 min) was 0.496 μM/cm^2 and the “sarcosine diffusion across Caco2” value ([6]; 30 min) was 0.405 μM/cm^2. For the same compound, the “sarcosine diffusion across Caco2” value ([6]; 45 min) was 0.974 μM/cm^2, the “sarcosine diffusion across Caco2” value ([6]; 60 min) was 1.423 μM/cm^2 and the “sarcosine diffusion across Caco2” value ([6]; 75 min) was 2.102 μM/cm^2. For the same compound, the “sarcosine diffusion across Caco2” value ([6]; 90 min) was 1.801 μM/cm^2.

[Cl-].[Na+] [sodium chloride] was tested, and the “effect on leucine permeability” value [7] was “did produce an effect” and the “effect on permeability of creatine monohydrate” value [7] was “enhanced”.

CC(C)C[C@H](N)C(=O)O [Leucine] was tested, and the “Leucine permeation across Caco-2 monolayer” value ([1]; human, Caco-2, 15 min) was 0.036 mg/cm2, the “Leucine permeation across Caco-2 monolayer” value ([1]; human, Caco-2, 30 min) was 0.052 mg/cm2 and the “Leucine permeation across Caco-2 monolayer” value ([1]; human, Caco-2, 45 min) was 0.078 mg/cm2. The “Leucine permeation across Caco-2 monolayer” value ([1]; human, Caco-2, 60 min) was 0.106 mg/cm2, the “Leucine permeation across Caco-2 monolayer” value ([1]; human, Caco-2, 75 min) was 0.128 mg/cm2 and the “Baseline adj for Leucine w/o Na” value ([1]; human, Caco-2, 90 min) was 0.00 mg/cm2. The “Leucine permeation across Caco-2 monolayer” value ([1]; human, Caco-2, 90 min) was 0.151 mg/cm2, the “L-Leucine permeability in the presence of TSC” value ([6]; in the presence of sarcosine) was “enhanced” and the “L-Leucine permeability in the presence of trisodium citrate” value ([5]; Caco-2) was “enhanced”. The “L-Leucine permeability in the presence of TSC” value ([8]; with L-Citrulline) was “enhanced”, the “effect on the permeability of glutathione” value ([2]; Caco-2) was “no noticeable effect” and the “permeability of Leucine in the presence of trisodium citrate” value ([2]; Caco-2) was “enhanced”.

In the case of CC[C@H](C)[C@H](N)C(=O)O [Iso-leucine alone, iso-leucine], the “permeability shift as a result of the addition of trisodium citrate” value [9] is reported as “substantially similar permeability shift and overall permeability increase to that exhibited by leucine”, the “iso-leucine diffusion across Caco2” value ([9]; 15 min) is reported as 0.271 μM/cm^2 and the “iso-leucine diffusion across Caco2” value ([9]; 30 min) is reported as 0.614 μM/cm^2. The “iso-leucine diffusion across Caco2” value ([9]; 45 min) was 0.978 μM/cm^2, the “iso-leucine diffusion across Caco2” value ([9]; 60 min) was 1.333 μM/cm^2 and the “iso-leucine diffusion across Caco2” value ([9]; 75 min) was 1.748 μM/cm^2. The “iso-leucine diffusion across Caco2” value ([9]; 90 min) was 2.078 μM/cm^2.

NC(=O)NCCC[C@H](N)C(=O)O [L-Citrulline alone, L-Citrulline] was tested, and the “L-Citrulline change in permeability in the presence of TSC” value ([4]; 10 mM TSC) was “did not show any significant change”, the “citrulline diffusion across Caco2” value ([4]; 15 min) was 2.281 μM/cm^2 and the “citrulline diffusion across Caco2” value ([4]; 30 min) was 1.428 μM/cm^2. For the same compound, the “citrulline diffusion across Caco2” value ([4]; 45 min) was 1.415 μM/cm^2, the “citrulline diffusion across Caco2” value ([4]; 60 min) was 2.191 μM/cm^2 and the “citrulline diffusion across Caco2” value ([4]; 75 min) was 2.457 μM/cm^2. The “citrulline diffusion across Caco2” value ([4]; 90 min) was 2.893 μM/cm^2, the “effect on L-Citrulline permeability by TSC or L-Leucine” value [8] was “no significant effect” and the “citrulline diffusion across Caco2” value ([8]; 15 min) was 0.846 μM/cm^2. For the same compound, the “citrulline diffusion across Caco2” value ([8]; 30 min) was 1.174 μM/cm^2, the “citrulline diffusion across Caco2” value ([8]; 45 min) was 1.906 μM/cm^2 and the “citrulline diffusion across Caco2” value ([8]; 60 min) was 2.381 μM/cm^2. The “citrulline diffusion across Caco2” value ([8]; 75 min) was 2.699 μM/cm^2 and the “citrulline diffusion across Caco2” value ([8]; 90 min) was 3.300 μM/cm^2.
